{"source": "patent US20230331739A1", "about": "“INDOLO HEPTAMYL OXIME ANALOG CRYSTAL AS PARP INHIBITOR AND METHOD FOR PREPARING SAME” (CHIA TAI TIANQING PHARMACEUTICAL GROUP CO., LTD., priority 2020, published 2023)", "key": {"[1]": {"test": "Preliminary stability examination at 60° C. and 75% humidity", "type": "physicochemical", "conditions": "60° C. 75% RH", "protocol": "1. Preliminary Stability Examination • Examination conditions: The stability of crystalline form A and crystalline form B was simultaneously examined at 60° C. and 75% humidity."}, "[2]": {"test": "Accelerated stability test at 40° C.±2° C. and 75±5% RH", "type": "physicochemical", "conditions": "40° C. ± 2° C./75 ± 5% RH", "protocol": "2. Accelerated Test • Examination conditions: Samples of crystalline form A of the compound of formula (I) were packed into double-layer pharmaceutical low-density polyethylene bags. Each layer of the pharmaceutical low-density polyethylene bag was sealed, then the bags were put into aluminum foil bags, and the aluminum foil bags were heat-sealed. Accelerated test was conducted at 40° C.±2° C. and 75±5% RH."}, "[3]": {"tested_on": "MDA-MB-436 cells with BRCA1 mutation", "test": "Anti-proliferation study on MDA-MB-436 cells (CellTiter-Glo)", "type": "cell-based", "conditions": "Homo sapiens, MDA-MB-436, 168 h; 7 days incubation", "protocol": "Materials: test compounds; RPMI-1640 medium; fetal bovine serum; penicillin/streptomycin antibiotic; MDA-MB-436 cells; Envision Multimode Plate Reader (PerkinElmer). MDA-MB-436 cells were seeded in a white 96-well plate by adding 80 μL of cell suspension (containing 3000 MDA-MB-436 cells) to each well. The cell plate was incubated in a CO2 incubator overnight. The test compounds were serially 5-fold diluted to the 8th concentration with a multichannel pipette, i.e., from 2 mM to 26 nM, in duplicate. 78 μL of medium was added to an intermediate plate, and the serially diluted compound was transferred to the intermediate plate at 2 μL per well. After being mixed well, the mixture was transferred to the cell plate at 20 μL per well. […] Another cell plate was provided for reading signal values on the day of compound addition and these signal values were used as Max values in data analysis. Promega CellTiter-Glo was added to the cell plate at 25 μL per well and the luminescence signals were stabilized by incubation for 10 min at room temperature. Readings were taken using a PerkinElmer Envision Multimode Plate Reader. […]"}, "[4]": {"test": "Single-dose pharmacokinetic study in mice", "type": "in vivo, male C57BL/6 mice", "protocol": "Objectives: To evaluate the pharmacokinetic behavior in male C57BL/6 mice and to determine the drug concentrations of the compound in the plasma, liver and cerebrospinal fluid after a single dose.\nProcedures: Healthy adult male C57BL/6 mice were selected for intragastric administration. The candidate compound was mixed with an appropriate amount of 10% DMSO/90% (20% hydroxypropyl-@-cyclodextrin), vortexed and sonicated to prepare a 0.5 mg/mL clear solution for later use. After the mice were administered intravenously at 1 mg/kg and orally at 5 mg/kg, whole blood was collected at certain time points. Plasma was separated, and liver and cerebrospinal fluid were collected. After pretreatment of the samples, the drug concentration was measured by LC-MS/MS, and pharmacokinetic parameters were calculated using Phoenix WinNonlin software."}}, "note": "Like-named read-outs stand apart in the source and are kept apart here.", "data": [{"smiles": "C[C@]1(c2ccc(-c3[nH]c4cc(F)cc5c4c3CONC5=O)cc2)CCCN1.Cl", "note": "[Crystalline form A]", "values": [{"measurement": "Preliminary stability examination (content, %) Day 0", "setting": "[1]", "value": 99.73, "unit": "%"}, {"measurement": "Preliminary stability examination (content, %) Day 10", "setting": "[1]", "value": 99.72, "unit": "%"}, {"measurement": "Appearance", "setting": "[2]; Initial values", "value": "Earthy yellow"}, {"measurement": "Content", "setting": "[2]; Initial values", "value": 98.0, "unit": "%"}, {"measurement": "Isomer", "setting": "[2]; Initial values", "value": "Not detectable"}, {"measurement": "Total impurities", "setting": "[2]; Initial values", "value": 0.45, "unit": "%"}, {"measurement": "Water content", "setting": "[2]; Initial values", "value": 2.07, "unit": "%"}, {"measurement": "Appearance", "setting": "[2]; Month 1", "value": "Earthy yellow"}, {"measurement": "Content", "setting": "[2]; Month 1", "value": 96.2, "unit": "%"}, {"measurement": "Isomer", "setting": "[2]; Month 1", "value": "Not detectable"}, {"measurement": "Total impurities", "setting": "[2]; Month 1", "value": 0.75, "unit": "%"}, {"measurement": "Water content", "setting": "[2]; Month 1", "value": 2.50, "unit": "%"}, {"measurement": "Appearance", "setting": "[2]; Month 2", "value": "Earthy yellow"}, {"measurement": "Content", "setting": "[2]; Month 2", "value": 96.9, "unit": "%"}, {"measurement": "Isomer", "setting": "[2]; Month 2", "value": "Not detectable"}, {"measurement": "Total impurities", "setting": "[2]; Month 2", "value": 0.78, "unit": "%"}, {"measurement": "Water content", "setting": "[2]; Month 2", "value": 2.26, "unit": "%"}, {"measurement": "Appearance", "setting": "[2]; Month 3", "value": "Earthy yellow"}, {"measurement": "Content", "setting": "[2]; Month 3", "value": 96.9, "unit": "%"}, {"measurement": "Isomer", "setting": "[2]; Month 3", "value": "Not detectable"}, {"measurement": "Total impurities", "setting": "[2]; Month 3", "value": 0.62, "unit": "%"}, {"measurement": "Water content", "setting": "[2]; Month 3", "value": 1.89, "unit": "%"}, {"measurement": "Appearance", "setting": "[2]; Month 6", "value": "Earthy yellow"}, {"measurement": "Content", "setting": "[2]; Month 6", "value": 97.5, "unit": "%"}, {"measurement": "Isomer", "setting": "[2]; Month 6", "value": "Not detectable"}, {"measurement": "Total impurities", "setting": "[2]; Month 6", "value": 0.93, "unit": "%"}, {"measurement": "Water content", "setting": "[2]; Month 6", "value": 2.14, "unit": "%"}, {"measurement": "IC50", "setting": "[3]", "value": 8.4, "unit": "nM"}]}, {"smiles": "C[C@]1(c2ccc(-c3[nH]c4cc(F)cc5c4c3CONC5=O)cc2)CCCN1.Cl", "note": "[Crystalline form B]", "values": [{"measurement": "Preliminary stability examination (content, %) Day 0", "setting": "[1]", "value": 99.09, "unit": "%"}, {"measurement": "Preliminary stability examination (content, %) Day 10", "setting": "[1]", "value": 98.93, "unit": "%"}]}, {"smiles": "CNCc1ccc(-c2[nH]c3cc(F)cc4c3c2CCNC4=O)cc1", "note": "[Rucaparib, reference compound]", "values": [{"measurement": "Maximum concentration", "setting": "[4]; IV: 1 mg/kg PO: 5 mg/kg", "value": 24.8, "unit": "nM"}, {"measurement": "AUC(0-t)", "setting": "[4]; male, C57BL/6, mouse, plasma, IV 1 mg/kg, read-out: AUC0-last (intravenous injection)", "value": 0.255, "unit": "µM·h"}, {"measurement": "half-life", "setting": "[4]; male, C57BL/6, mouse, plasma, IV: 1 mg/kg PO: 5 mg/kg", "value": 1.78, "unit": "h"}, {"measurement": "AUC(0-t)", "setting": "[4]; male, C57BL/6, mouse, plasma, PO 5 mg/kg, read-out: AUC0-last (oral)", "value": 0.145, "unit": "µM·h"}]}]}
